Assay results published in publication PMC6273954, “Antileishmanial Activity and Structure-Activity Relationship of Triazolic Compounds Derived from the Neolignans Grandisin, Veraguensin, and Machilin G” (Molecules, 2016).
pIC50: −log10 of the molar value. Values after ≈ are worked out from the molar mass of the structure shown. Read-outs that look alike come from different tables or passages of the source.

Columns and labels:
[1] = system: L. (L.) amazonensis intracellular amastigotes; test: In vitro antileishmanial activity on intracellular amastigotes in peritoneal macrophages; format: cell-based, Leishmania (Leishmania) amazonensis; set-up: key to activity class against intracellular amastigotes: active (<20 µM); moderately active (20–50 µM); potentially inactive (>50 µM); conditions: for pIC50: Leishmania amazonensis, Peritoneal macrophage; for concentration from which infection index was significantly decreased / effect on infection index: versus untreated cells
Procedure: In vitro antileishmanial activity was evaluated on peritoneal macrophages infected with. L. (L.) amazonensis intracellular amastigotes. Parasites (IFLA/BR/1967/PH8 strain) were routinely isolated from BALB/c mice and maintained as promastigotes at 25 °C in Schneider's Insect Medium (Sigma-Aldrich®, St. Louis, MO, USA) supplemented with 20% fetal calf serum (FCS-Cultilab® Campinas, Brazil) and 140 μg·mL^-1 gentamicin (Sigma-Aldrich®). Macrophages were obtained from peritoneal wash of BALB/c mice after euthanasia. 10 mL of RPMI 1640 (Sigma-Aldrich®) supplemented with 2% L-glutamine, 2.8% bicarbonate buffer, 100 U·mL^-1 penicillin and […] streptomycin were injected into the peritoneal cavity. After massage area, liquid was aspirated and transferred to tubes on ice. Peritoneal cells were quantified in Neubauer chamber after cellular exclusion with Trypan Blue staining (Sigma-Aldrich®). Peritoneal cells (1 × 10^5 cells/well) were added to 24-well plates containing circular coverslips. Plates were incubated for one hour at 37 °C/5% CO2 to allow cell adhesion and then 1 × 10^6 L. (L.) amazonensis promastigotes were added to each well. Plates were incubated at 35 °C/5% CO2 for four hours and then cells were treated for 24 h with synthetic compounds 4-19 (6.25-50 μg·mL^-1). Amphotericin B (Sigma-Aldrich®) was used as the reference drug (0.25 to 2 μg·mL^-1) and untreated cells were used as negative control. Coverslips were processed as described by Rizk et al.. The overall number of amastigotes was determined by counting 100 cells in six replicates. The half maximal inhibitory concentration (IC50) was calculated using a nonlinear regression curve. Infection index was obtained as described by […] et al..

J774.A1 cells = test: Cytotoxicity assay (sulforhodamine B); format: cell-based, murine; conditions: for SI (selectivity index): IC50 on mammalian cells/IC50 on intracellular amastigotes; for pIC50: Mus musculus, J774.A1, murine macrophages, 48 h, sulforhodamine B; for cytotoxicity on mammalian cells: J774.A1 macrophages
Procedure: Amphotericin B (Sigma-Aldrich®) was used as the reference drug (0.025–25 µg·mL^−1). Cell growth was evaluated according to Skehan et al. using the sulforhodamine B assay. Dimethyl sulfoxide (DMSO, Vetec®, Rio de Janeiro, Brazil) was used as negative control at the concentration used to solubilize the highest concentration of compounds. IC50 was calculated by nonlinear regression curve. Selectivity index was calculated according to Medeiros et al..

[2] = system: L. amazonensis infected macrophages; test: Nitric oxide production by infected and treated peritoneal cells (Griess); format: cell-based, BALB/c mice
Procedure: To evaluate the nitric oxide production (NO) by infected and treated peritoneal cells, 50 µL of culture supernatant from the antileishmanial assay were collected and incubated with equal volume of Griess reagent (1% sulfanilamide /0.1% naphthalene diamine in 5% phosphoric acid) for 10 min at room temperature. According to Ding et al., the absorbance was determined at 540 nm and converted to NO2^− (µM) by comparing to a standard curve of known concentrations of sodium nitrite (1–10 µM) in RPMI medium (Sigma-Aldrich®).

[3] = system: L. (L.) amazonensis promastigotes; conditions: cited from earlier work
[4] = system: L. donovani promastigote forms; set-up: method as in PMID 18688887; conditions: cited from earlier work
[5] = in Mus musculus, infected BALB/c peritoneal macrophages, treated 24 h, read-out: Intracellular Amastigotes IC50
[6] = classified by IC50 according to Upegui et al.
[7] = at the highest concentration(s) tested, compared to control
[8] = 24 h, classified by IC50 according to Upegui et al., read-out: activity class against intracellular amastigotes
[9] = 24 h after treatment, compared to untreated infected cells (control)
[10] = at the lowest concentrations tested, compared to control
[11] = highest reduction reached / at the highest concentration, 24 h after treatment

pIC50 [1, 5]	pIC50 [1, 8]	Structure (SMILES)	SI (selectivity index) (J774.A1 cells)	pIC50 (J774.A1 cells)	activity class against intracellular amastigotes [1, 6]	nitric oxide (NO) production [2, 9]	further results
6.15		C[C@@H]1[C@H](O)[C@@H](C)/C=C/C=C/C=C/C=C/C=C/C=C/C=C/[C@H](O[C@@H]2O[C@H](C)[C@@H](O)[C@H](N)[C@@H]2O)C[C@@H]2O[C@](O)(C[C@@H](O)C[C@@H](O)[C@H](O)CC[C@@H](O)C[C@@H](O)CC(=O)O[C@H]1C)C[C@H](O)[C@H]2C(=O)O [Amphotericin B, reference compound]	3.1	5.66			
4.88		COc1ccc(-c2cn(-c3ccc(OC)cc3)nn2)cc1 [Compound 4]	66.9	3.06	active		nitric oxide (NO) production [2, 7]: increase of NO production
4.67	4.30 to 4.70	COc1ccc(-c2cn(-c3ccc(OC)c(OC)c3)nn2)cc1OC [Compound 5]	3.6	4.12			concentration from which infection index was significantly decreased ([1]; 24 h after treatment): 12.5 µg/mL; nitric oxide (NO) production ([2]; at 25 µg·mL−1, compared to control): lower than control
5.03		COc1cc(-c2cn(-c3cc(OC)c(OC)c(OC)c3)nn2)cc(OC)c1OC [Compound 6]	>66.2	< 3.21	active	increased production of nitric oxide	concentration from which infection index was significantly decreased ([1]; 24 h after treatment): 6.25 µg/mL; reduction of infection index ([1]; at 50 µg·mL−1, 24 h after treatment): 98.6%; activity on promastigote forms [3]: inactive on promastigote forms
4.69	4.30 to 4.70	c1cc2c(cc1-c1cn(-c3ccc4c(c3)OCO4)nn1)OCO2 [Compound 7]	4.2	4.06			
4.80		COc1ccc(-c2cn(-c3ccc(OC)c(OC)c3)nn2)cc1 [Compound 8]	4.9	4.10	active		
4.74		COc1ccc(-n2cc(-c3ccc(OC)c(OC)c3)nn2)cc1 [Compound 9]	1.2	4.65	active		
4.77		COc1ccc(-c2cn(-c3cc(OC)c(OC)c(OC)c3)nn2)cc1 [Compound 10]	3.9	4.18	active		
4.78		COc1ccc(-n2cc(-c3cc(OC)c(OC)c(OC)c3)nn2)cc1 [Compound 11]	4.1	4.17	active		nitric oxide (NO) production [2, 7]: higher than control; nitric oxide (NO) production [2, 10]: lower than untreated cells
4.83		COc1ccc(-c2cn(-c3ccc4c(c3)OCO4)nn2)cc1 [Compound 12]	6.5	4.02	active	increase in NO production	nitric oxide (NO) production [2, 7]: increase of NO production
4.29		COc1ccc(-n2cc(-c3ccc4c(c3)OCO4)nn2)cc1 [Compound 13]	2.6	3.87	did not show potential activity	increase in NO production	
5.25		COc1ccc(-c2cn(-c3cc(OC)c(OC)c(OC)c3)nn2)cc1OC [Compound 14]	14.1	4.10	active	induced nitric oxide production	effect on infection index ([1]; 24 h after treatment): reduced the infection index at all concentrations tested; reduction of infection index [1, 11]: 86.4%; cytotoxicity on mammalian cells (J774.A1 cells): low cytotoxicity on mammalian cells; nitric oxide (NO) production [2, 10]: significantly induced NO production
4.53	4.30 to 4.70	COc1ccc(-n2cc(-c3cc(OC)c(OC)c(OC)c3)nn2)cc1OC [Compound 15]	2.6	4.11			
4.49	4.30 to 4.70	COc1ccc(-c2cn(-c3ccc4c(c3)OCO4)nn2)cc1OC [Compound 16]	>23.5	< 3.11		significantly induce NO production	
4.52	4.30 to 4.70	COc1ccc(-n2cc(-c3ccc4c(c3)OCO4)nn2)cc1OC [Compound 17]	0.3	5.04			cytotoxicity on mammalian cells (J774.A1 cells): toxic for the macrophages
4.53	4.30 to 4.70	COc1cc(-c2cn(-c3ccc4c(c3)OCO4)nn2)cc(OC)c1OC [Compound 18]	2.2	4.17		did not induce a significant production of NO	reduction of infection index [1, 11]: 92.1%
5.36		COc1cc(-n2cc(-c3ccc4c(c3)OCO4)nn2)cc(OC)c1OC [Compound 19]	10.6	4.33	active	induced nitric oxide production	effect on infection index ([1]; 24 h after treatment): significantly reduced the infection index; cytotoxicity on mammalian cells (J774.A1 cells): low cytotoxicity on mammalian cells; nitric oxide (NO) production [2, 7]: twice as high than control; pIC50 ([3]; read-out: IC50 against L. (L.) amazonensis promastigote forms): 5.14
		COc1cccc2c1C(=O)c1c(O)c3c(c(O)c1C2=O)C[C@@](O)(C(=O)CO)C[C@@H]3O[C@H]1C[C@H](N)[C@H](O)[C@H](C)O1 [Doxorubicin, reference compound]		6.30			
		COc1cc([C@@H]2O[C@@H](c3cc(OC)c(OC)c(OC)c3)[C@H](C)[C@H]2C)cc(OC)c1OC [grandisin]					IC50 on L. (L.) amazonensis promastigotes [3]: 42.4 µg/mL (≈ 98 µM); pIC50 ([3]; read-out: IC50 on L. (L.) amazonensis promastigotes): 4.01
		COc1ccc([C@H]2O[C@@H](c3ccc(OC)c(OC)c3)[C@H](C)[C@H]2C)cc1OC [veraguensin]					pIC50 [4]: 4.32; activity on L. donovani promastigote forms [4]: 18 µg/mL
